Results reported in PubChem BioAssay AID2060885 (Molecular Pharmacology Branch, DTP, NCI, 2025).
pIC50: −log10 of the molar value.

System: NCI-H23 complex spheroids with HUVEC/MSC, viability
Experiment: Anticancer human tumor NCI-H23 cell line growth inhibition [RAS];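 note: spheroids exposed to compound for 7 days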;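 for viability, T/C: 100% = DMSO vehicle control viability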
Conditions: for pIC50: curve of first compound; for viability, T/C: stronger effect = lower value; for IC50: curve of compound
Method in brief: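 Tumour cells grown as complex spheroids with HUVEC endothelial cells and mesenchymal stem cells, treated with RAS pathway inhibitor combinations. Each agent spans half-log steps from near clinical Cmax, or 10 microM where Cmax is unknown.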

[1] = second compound 0.0316 µM, first compound 0.0316 µM
[2] = second compound 0.0316 µM, first compound 0.1 µM
[3] = second compound 0.0316 µM, first compound 0.316 µM
[4] = second compound 0.0316 µM, first compound 1 µM
[5] = second compound 0.1 µM, first compound 0.0316 µM
[6] = second compound 0.1 µM, first compound 0.1 µM
[7] = second compound 0.1 µM, first compound 0.316 µM
[8] = second compound 0.1 µM, first compound 1 µM
[9] = second compound 0.316 µM, first compound 0.0316 µM
[10] = second compound 0.316 µM, first compound 0.1 µM
[11] = second compound 0.316 µM, first compound 0.316 µM
[12] = second compound 0.316 µM, first compound 1 µM
[13] = second compound 1 µM, first compound 0.0316 µM
[14] = second compound 1 µM, first compound 0.1 µM
[15] = second compound 1 µM, first compound 0.316 µM
[16] = second compound 1 µM, first compound 1 µM

For `NC1c2ccccc2OC12CCN(c1cnc3c(N4CCCc5ncccc54)n[nH]c3n1)CC2` (centres undefined) + C=CC(=O)N1CCN(c2nc(OCC3CCCN3C)nc3c(F)c(-c4nc(N)cc(C)c4C(F)(F)F)c(Cl)cc23)C(C)C1, the pIC50 (second compound 0.00316 µM) was > 7.50, the pIC50 (second compound 0.01 µM) was > 7.50 and the pIC50 (second compound 0.0316 µM) was > 7.50. For the same molecule, the pIC50 (second compound 0.1 µM) was > 7.50, the pIC50 (second compound 0.316 µM) was > 7.50 and the pIC50 (second compound 1 µM) was > 7.50. It also gave a viability, T/C (second compound 0.00316 µM, first compound 0.0316 µM) of 36.1%, a viability, T/C (second compound 0.00316 µM, first compound 0.1 µM) of 31.4% and a viability, T/C (second compound 0.00316 µM, first compound 0.316 µM) of 23.7%. It also gave a viability, T/C (second compound 0.00316 µM, first compound 1 µM) of 20.7%, a viability, T/C (second compound 0.00316 µM, first compound 3.16 µM) of 17.5% and a viability, T/C (second compound 0.00316 µM, first compound 10 µM) of 12.2%. The viability, T/C (second compound 0.01 µM, first compound 0.0316 µM) was 32.9%, the viability, T/C (second compound 0.01 µM, first compound 0.1 µM) was 29.2% and the viability, T/C (second compound 0.01 µM, first compound 0.316 µM) was 18.9%. For the same molecule, the viability, T/C (second compound 0.01 µM, first compound 1 µM) was 16.9%, the viability, T/C (second compound 0.01 µM, first compound 3.16 µM) was 11.4% and the viability, T/C (second compound 0.01 µM, first compound 10 µM) was 10.4%. For the same molecule, the viability, T/C [1] was 27.9%, the viability, T/C [2] was 25% and the viability, T/C [3] was 18.2%. For the same molecule, the viability, T/C [4] was 13.6%, the viability, T/C (second compound 0.0316 µM, first compound 3.16 µM) was 11.8% and the viability, T/C (second compound 0.0316 µM, first compound 10 µM) was 10.1%. The viability, T/C [5] was 25%, the viability, T/C [6] was 21.6% and the viability, T/C [7] was 17.8%. The viability, T/C [8] was 14.8%, the viability, T/C (second compound 0.1 µM, first compound 3.16 µM) was 11.8% and the viability, T/C (second compound 0.1 µM, first compound 10 µM) was 8.71%. The viability, T/C [9] was 23.1%, the viability, T/C [10] was 23.4% and the viability, T/C [11] was 19.4%. For the same molecule, the viability, T/C [12] was 14.8%, the viability, T/C (second compound 0.316 µM, first compound 3.16 µM) was 12.2% and the viability, T/C (second compound 0.316 µM, first compound 10 µM) was 11.7%. It also gave a viability, T/C [13] of 26.8%, a viability, T/C [14] of 24.6% and a viability, T/C [15] of 20.1%. The viability, T/C [16] was 13.1%, the viability, T/C (second compound 1 µM, first compound 3.16 µM) was 12.8% and the viability, T/C (second compound 1 µM, first compound 10 µM) was 11.2%.
In the case of `CC1(O)CCCC1n1c(=O)c(C(F)F)cc2cnc(NC3CCN(S(C)(=O)=O)CC3)nc21` (centres undefined), the viability, T/C (compound 0.0316 µM) was 94% [middle of 4 runs], the viability, T/C (compound 0.316 µM) was 67.5% [middle of 4 runs] and the viability, T/C (compound 1 µM) was 80.9% [middle of 4 runs]. The viability, T/C (compound 3.16 µM) was 71.7% [middle of 4 runs], the viability, T/C (compound 10 µM) was 14.3% [middle of 4 runs] and the IC50 was 4.68 µM [middle of 4 runs].
In the case of `C=CC(=O)Nc1cc(Nc2nccc(-c3cn(C)c4ccccc34)n2)c(OC)cc1N(C)CCN(C)C` + C#Cc1c(F)ccc2cc(O)cc(-c3ncc4c(N5CC6CCC(C5)N6)nc(OCC56CCCN5CC(F)C6)nc4c3F)c12, the pIC50 (second compound 0.0316 µM) was < 6.00, the pIC50 (second compound 0.1 µM) was < 6.00 and the pIC50 (second compound 0.316 µM) was < 6.00. The pIC50 (second compound 1 µM) was < 6.00, the pIC50 (second compound 3.16 µM) was 7.09 and the pIC50 (second compound 10 µM) was > 8.50. For the same molecule, the viability, T/C (second compound 0.0316 µM, first compound 0.00316 µM) was 101%, the viability, T/C (second compound 0.0316 µM, first compound 0.01 µM) was 128% and the viability, T/C [1] was 101%. For the same molecule, the viability, T/C [2] was 99.2%, the viability, T/C [3] was 98.4% and the viability, T/C [4] was 102%. For the same molecule, the viability, T/C (second compound 0.1 µM, first compound 0.00316 µM) was 109%, the viability, T/C (second compound 0.1 µM, first compound 0.01 µM) was 113% and the viability, T/C [5] was 95.7%. The viability, T/C [6] was 93.6%, the viability, T/C [7] was 101% and the viability, T/C [8] was 112%. It also gave a viability, T/C (second compound 0.316 µM, first compound 0.00316 µM) of 104%, a viability, T/C (second compound 0.316 µM, first compound 0.01 µM) of 122% and a viability, T/C [9] of 95.5%. For the same molecule, the viability, T/C [10] was 90%, the viability, T/C [11] was 89.8% and the viability, T/C [12] was 89.3%. It also gave a viability, T/C (second compound 1 µM, first compound 0.00316 µM) of 107%, a viability, T/C (second compound 1 µM, first compound 0.01 µM) of 109% and a viability, T/C [13] of 93%. For the same molecule, the viability, T/C [14] was 86.6%, the viability, T/C [15] was 77.1% and the viability, T/C [16] was 85.3%. It also gave a viability, T/C (second compound 3.16 µM, first compound 0.00316 µM) of 64.5%, a viability, T/C (second compound 3.16 µM, first compound 0.01 µM) of 64.1% and a viability, T/C (second compound 3.16 µM, first compound 0.0316 µM) of 60.2%. The viability, T/C (second compound 3.16 µM, first compound 0.1 µM) was 47.3%, the viability, T/C (second compound 3.16 µM, first compound 0.316 µM) was 43.5% and the viability, T/C (second compound 3.16 µM, first compound 1 µM) was 52.8%. The viability, T/C (second compound 10 µM, first compound 0.00316 µM) was 41.9%, the viability, T/C (second compound 10 µM, first compound 0.01 µM) was 45.8% and the viability, T/C (second compound 10 µM, first compound 0.0316 µM) was 36.1%. The viability, T/C (second compound 10 µM, first compound 0.1 µM) was 34%, the viability, T/C (second compound 10 µM, first compound 0.316 µM) was 30% and the viability, T/C (second compound 10 µM, first compound 1 µM) was 30.1%.
With `CCN1CCN(Cc2ccc(Nc3ncc(F)c(-c4cc(F)c5nc(C)n(C(C)C)c5c4)n3)nc2)CC1` + CCn1c(-c2cc(N3CCN(C)CC3)cnc2C(C)OC)c2c3cc(ccc31)-c1csc(n1)CC(NC(=O)C1CC1C)C(=O)N1CCCC(N1)C(=O)OCC(C)(C)C2 the pIC50 (second compound 0.000949 µM) was > 8.50, the pIC50 (second compound 0.003 µM) was > 8.50 and the pIC50 (second compound 0.00949 µM) was > 8.50. For the same molecule, the pIC50 (second compound 0.03 µM) was > 8.50, the pIC50 (second compound 0.0949 µM) was > 8.50 and the pIC50 (second compound 0.3 µM) was > 8.50. For the same molecule, the viability, T/C (second compound 0.000949 µM, first compound 0.00316 µM) was 37.3%, the viability, T/C (second compound 0.000949 µM, first compound 0.01 µM) was 32.9% and the viability, T/C (second compound 0.000949 µM, first compound 0.0316 µM) was 18.3%. For the same molecule, the viability, T/C (second compound 0.000949 µM, first compound 0.1 µM) was 20.1%, the viability, T/C (second compound 0.000949 µM, first compound 0.316 µM) was 17.9% and the viability, T/C (second compound 0.000949 µM, first compound 1 µM) was 12.9%. For the same molecule, the viability, T/C (second compound 0.003 µM, first compound 0.00316 µM) was 29.6%, the viability, T/C (second compound 0.003 µM, first compound 0.01 µM) was 22.1% and the viability, T/C (second compound 0.003 µM, first compound 0.0316 µM) was 16%. For the same molecule, the viability, T/C (second compound 0.003 µM, first compound 0.1 µM) was 16.8%, the viability, T/C (second compound 0.003 µM, first compound 0.316 µM) was 14.3% and the viability, T/C (second compound 0.003 µM, first compound 1 µM) was 12.3%. The viability, T/C (second compound 0.00949 µM, first compound 0.00316 µM) was 29%, the viability, T/C (second compound 0.00949 µM, first compound 0.01 µM) was 21.5% and the viability, T/C (second compound 0.00949 µM, first compound 0.0316 µM) was 17.2%. It also gave a viability, T/C (second compound 0.00949 µM, first compound 0.1 µM) of 16.2%, a viability, T/C (second compound 0.00949 µM, first compound 0.316 µM) of 12.9% and a viability, T/C (second compound 0.00949 µM, first compound 1 µM) of 10.4%. For the same molecule, the viability, T/C (second compound 0.03 µM, first compound 0.00316 µM) was 23.1%, the viability, T/C (second compound 0.03 µM, first compound 0.01 µM) was 17.9% and the viability, T/C (second compound 0.03 µM, first compound 0.0316 µM) was 18.9%. The viability, T/C (second compound 0.03 µM, first compound 0.1 µM) was 14%, the viability, T/C (second compound 0.03 µM, first compound 0.316 µM) was 9.41% and the viability, T/C (second compound 0.03 µM, first compound 1 µM) was 14.5%. For the same molecule, the viability, T/C (second compound 0.0949 µM, first compound 0.00316 µM) was 16.1%, the viability, T/C (second compound 0.0949 µM, first compound 0.01 µM) was 16% and the viability, T/C (second compound 0.0949 µM, first compound 0.0316 µM) was 13.7%. For the same molecule, the viability, T/C (second compound 0.0949 µM, first compound 0.1 µM) was 10.7%, the viability, T/C (second compound 0.0949 µM, first compound 0.316 µM) was 10.1% and the viability, T/C (second compound 0.0949 µM, first compound 1 µM) was 13.1%. For the same molecule, the viability, T/C (second compound 0.3 µM, first compound 0.00316 µM) was 14.8%, the viability, T/C (second compound 0.3 µM, first compound 0.01 µM) was 16.5% and the viability, T/C (second compound 0.3 µM, first compound 0.0316 µM) was 12.8%. For the same molecule, the viability, T/C (second compound 0.3 µM, first compound 0.1 µM) was 10.4%, the viability, T/C (second compound 0.3 µM, first compound 0.316 µM) was 10.6% and the viability, T/C (second compound 0.3 µM, first compound 1 µM) was 12.6%.
In the case of `Nc1ccn(C2OC(CO)C(O)C2(F)F)c(=O)n1` (centres undefined), the viability, T/C (compound 0.00316 µM) was 77.2% [middle of 4 runs], the viability, T/C (compound 0.01 µM) was 15.3% [middle of 4 runs] and the viability, T/C (compound 0.0316 µM) was 8.37% [middle of 4 runs]. The viability, T/C (compound 0.1 µM) was 7.36% [middle of 4 runs], the viability, T/C (compound 0.316 µM) was 7.15% [middle of 4 runs] and the viability, T/C (compound 1 µM) was 10.5% [middle of 4 runs]. For the same molecule, the IC50 was 5.35 nM [middle of 4 runs].
